Source: patent US20160296529A1, “AMINOTRIAZOLOPYRIDINE FOR USE IN THE TREATMENT OF INFLAMMATION, AND PHARMACEUTICAL COMPOSITIONS THEREOF” (priority 2012, published 2016)
Several values for one entry are separate records, joined by “and”; a condition that tells them apart may be missing. Identical values can stand only once. Like-named read-outs stand apart in the source and are kept apart here.

Columns and labels:
[1] = molecular target: T1, Recombinant human JAK2 catalytic domain (Homo sapiens, UniProt O60674); assay: JAK2 assay polyGT substrate; assay type: biochemical
T1 construct: amino acids 808-1132; catalog number PV4210; GST; purchased Invitrogen PV4210
Experimental: Recombinant human JAK2 catalytic domain (amino acids 808-1132; catalog number PV4210) was purchased from Invitrogen. 0.05 mU of JAK2 was incubated with 2.5 μg polyGT substrate (Sigma catalog number P0275) in kinase reaction buffer (10 mM MOPS pH 7.5, 0.5 mM EDTA, 0.01% Brij-35, 1 mM DTT, 15 mM MgAc, 1 μM non-radioactive ATP, 0.25 μCi ^33P-gamma-ATP (Perkin Elmer, catalog number NEG602K001MC) final concentrations) with or without 5 μL containing test compound or vehicle (DMSO, 1% final concentration), in a total volume of 25 μL, in a polypropylene 96-well plate (Greiner, V-bottom). After 90 min at 30° C., reactions were stopped by adding of 25 μL/well of 150 mM phosphoric acid. […] 40 μL/well of Microscint-20 was added, the top of the plates was sealed and readout was performed using the Topcount (Perkin Elmer). Kinase activity was calculated by subtracting counts per min (cpm) obtained in the presence of a positive control inhibitor (10 μM staurosporine) from cpm obtained in the presence of vehicle. The ability of a test compound to inhibit this activity was determined as:
Percentage inhibition=((cpm determined for sample with test compound present−cpm determined for sample with positive control inhibitor) divided by (cpm determined in the presence of vehicle−cpm determined for sample with positive control inhibitor))*100. […]

[2] = molecular target: T2, Recombinant human JAK1 catalytic domain (Homo sapiens, UniProt P23458); assay: JAK1 assay polyGT substrate; assay type: biochemical
T2 construct: amino acids 866-1154; catalog number PV4774; purchased Invitrogen PV4774
Experimental: Recombinant human JAK1 catalytic domain (amino acids 866-1154; catalog number PV4774) was purchased from Invitrogen. 25 ng of JAK1 was incubated with 6.25 μg polyGT substrate (Sigma catalog number P0275) in kinase reaction buffer (15 mM Hepes pH7.5, 0.01% Tween20, 10 mM MgCl2, 2 μM non-radioactive ATP, 0.25 μCi ^33P-gamma-ATP (Perkin Elmer, catalog number NEG602K001MC) final concentrations) with or without 5 μL containing test compound or vehicle (DMSO, 1% final concentration), in a total volume of 25 μL, in a polypropylene 96-well plate (Greiner, V-bottom). After 75 min at 30° C., reactions were stopped by adding 25 μL/well of 150 mM phosphoric acid. […] 40 μL/well of Microscint-20 was added, the top of the plates was sealed and readout was performed using the Topcount (Perkin Elmer). Kinase activity was calculated by subtracting counts per min (cpm) obtained in the presence of a positive control inhibitor (10 μM staurosporine) from cpm obtained in the presence of vehicle. The ability of a test compound to inhibit this activity was determined as:
Percentage inhibition−((cpm determined for sample with test compound present−cpm determined for sample with positive control inhibitor) divided by (cpm determined in the presence of vehicle−cpm determined for sample with positive control inhibitor))*100. […]

[3] = average, read-out: IC50 (average)
[4] = individual determinations, read-out: IC50

T1 sequence (O60674 808-1132): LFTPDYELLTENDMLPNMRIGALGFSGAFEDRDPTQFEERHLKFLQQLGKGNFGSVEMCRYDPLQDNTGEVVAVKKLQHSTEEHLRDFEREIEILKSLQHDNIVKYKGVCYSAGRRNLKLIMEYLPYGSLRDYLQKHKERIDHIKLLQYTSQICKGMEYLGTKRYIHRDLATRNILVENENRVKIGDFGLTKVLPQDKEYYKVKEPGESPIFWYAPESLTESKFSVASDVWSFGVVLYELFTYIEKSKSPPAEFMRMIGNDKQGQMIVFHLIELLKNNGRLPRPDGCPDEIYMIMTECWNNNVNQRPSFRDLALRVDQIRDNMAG
T2 sequence (P23458 866-1154): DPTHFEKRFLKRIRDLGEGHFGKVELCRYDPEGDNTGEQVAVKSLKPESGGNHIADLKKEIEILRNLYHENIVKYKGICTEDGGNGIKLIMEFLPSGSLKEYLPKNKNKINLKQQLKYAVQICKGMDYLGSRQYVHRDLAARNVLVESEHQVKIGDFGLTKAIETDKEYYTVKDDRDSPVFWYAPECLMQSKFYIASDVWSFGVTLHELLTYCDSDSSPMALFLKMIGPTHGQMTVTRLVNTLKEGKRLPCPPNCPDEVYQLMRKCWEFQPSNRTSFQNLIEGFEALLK

- IC50 [1, 3]: 624 nM
- IC50 [1, 4]: 567 nM and 365 nM and 256 nM and 915 nM and 1020 nM
- IC50 [2, 3]: 546 nM
- IC50 [2, 4]: 460 nM and 586 nM and 494 nM and 758 nM and 433 nM
Structure (SMILES): Nc1nc2cccc(-c3ccc(CN4CCS(=O)(=O)CC4)cc3)n2n1 [Formula I, 5-[4-(1,1-Dioxothiomorpholin-4-ylmethyl)-phenyl]-[1,2,4]triazolo[1,5-a]pyridin-2-ylamine]
